Measurements published in patent US20060069132A1, “Azolecarboxamide herbicides” (priority 2004, published 2006).

Tests used:
blackgrass = test: Test B postemergence herbicide test; type: in vivo, Alopecurus myosuroides; settings: postemergence, visual rating, scale 0 (no effect) to 100 (complete control)
Summary of the method: (§1)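 Each value is a visual 0–100 response rating taken against controls 13 to 15 days after treatment in the greenhouse. Plants received formulated chemical postemergence at the 1- to 4-leaf stage or, in flooded paddy, at the 2-leaf stage.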

barnyardgrass [1] = test: Test B flooded paddy test; type: in vivo, Echinochloa crus-galli; settings: 1000 g ai/ha, visual rating, scale 0 to 100 (0 no effect, 100 complete control), 13 to 15 days
Summary of the method: as §1

[2] = tested on: small flower umbrella sedge; test: Test B flooded paddy test; type: in vivo, Cyperus difformis; settings: 1000 g ai/ha, visual rating, scale 0 to 100 (0 no effect, 100 complete control), 13 to 15 days
Summary of the method: as §1

barnyardgrass [3] = test: Test B pre-/postemergence herbicide test; type: in vivo, Echinochloa crus-galli; settings: for Barnyardgrass plant response rating: postemergence, visual rating, scale 0 (no effect) to 100 (complete control)
Summary of the method: (§2)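 Evaluation is visual, comparing treated with control plants on a scale where 0 means no effect and 100 means full control. Treatments were preemergence, or postemergence on seedlings 2–18 cm tall, and held 13–15 days in the greenhouse.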

lambsquarters = test: Test B pre-/postemergence herbicide test; type: in vivo, Chenopodium album; settings: for Lambsquarters plant response rating: postemergence, visual rating, scale 0 (no effect) to 100 (complete control)
Summary of the method: (§3)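 Test chemicals in a non-phytotoxic solvent mixture with surfactant were applied preemergence to seeded species and postemergence to plants 2-18 cm tall (1- to 4-leaf stage); rice and barnyardgrass were also tested in a flooded paddy at the 2-leaf stage. Visual rating versus controls after 13-15 days in greenhouse, scale 0 (no effect) to 100 (complete control).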

giant foxtail = test: Test B pre-/postemergence herbicide test; type: in vivo, Setaria faberi; settings: for Foxtail, Giant plant response rating: postemergence, visual rating, scale 0 (no effect) to 100 (complete control)
Summary of the method: as §3

morningglory = test: Test B pre-/postemergence herbicide test; type: in vivo, Ipomoea coccinea; settings: for Morningglory plant response rating: postemergence, visual rating, scale 0 (no effect) to 100 (complete control)
Summary of the method: as §2

wild oat = test: Test B postemergence herbicide test; type: in vivo, Avena fatua; settings: postemergence, visual rating, scale 0 (no effect) to 100 (complete control)
Summary of the method: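 Read-out: visual comparison with controls, scored 0 to 100, where 100 means complete control and 0 no effect. Formulated chemicals were applied postemergence to plants 2–18 cm tall (1- to 4-leaf), or to flooded-paddy plants at the 2-leaf stage, then held 13 to 15 days under glass.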

rice = test: Test B flooded paddy test; type: in vivo, Oryza sativa; settings: 1000 g ai/ha, visual rating, scale 0 to 100 (0 no effect, 100 complete control), 13 to 15 days
Summary of the method: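 Paddy species grown to the 2-leaf stage under flooding; blackgrass sprayed postemergence at 2–18 cm (1- to 4-leaf stage). Plants kept in a greenhouse for 13 to 15 days, then visually rated against controls on 0 (no effect) to 100 (complete control).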

cocklebur = test: Test B pre-/postemergence herbicide test; type: in vivo, Xanthium strumarium; settings: for Cocklebur plant response rating: postemergence, visual rating, scale 0 (no effect) to 100 (complete control)
Summary of the method: as §2

pigweed = test: Test B pre-/postemergence herbicide test; type: in vivo, Amaranthus retroflexus; settings: for Pigweed plant response rating: postemergence, visual rating, scale 0 (no effect) to 100 (complete control)
Summary of the method: as §3

ducksalad = test: Test B flooded paddy test; type: in vivo, Heteranthera limosa; settings: 1000 g ai/ha, visual rating, scale 0 to 100 (0 no effect, 100 complete control), 13 to 15 days
Summary of the method: as §1

corn = test: Test B pre-/postemergence herbicide test; type: in vivo, Zea mays; settings: for Corn plant response rating: postemergence, visual rating, scale 0 (no effect) to 100 (complete control)
Summary of the method: as §3

large crabgrass = test: Test B pre-/postemergence herbicide test; type: in vivo, Digitaria sanguinalis; settings: for Crabgrass, Large plant response rating: postemergence, visual rating, scale 0 (no effect) to 100 (complete control)
Summary of the method: as §3

velvetleaf = test: Test B pre-/postemergence herbicide test; type: in vivo, Abutilon theophrasti; settings: for Velvetleaf plant response rating: postemergence, visual rating, scale 0 (no effect) to 100 (complete control)
Summary of the method: as §3

[4] = 125 g ai/ha, 0 = no effect, 100 = complete control, preemergence
[5] = 500 g ai/ha, visual rating 0-100, 0 no effect, 100 complete control, preemergence

**Q.** With `CCc1nn(C(C)(C)C)cc1C(=O)Nc1cccc(C(C)=NO)c1` [Compound 188] as the molecule, how does the “Blackgrass plant response rating” value (blackgrass; 125 g ai/ha) read?
**A.** The value was 10.

**Q.** And the “Blackgrass plant response rating” value (blackgrass; 500 g ai/ha)?
**A.** Its value is 10.

**Q.** And the “Barnyardgrass plant response rating” value (barnyardgrass [1])?
**A.** The value was 60.

**Q.** And the “Sedge, Umbrella plant response rating” value [2]?
**A.** Its value is 80.

**Q.** What about the “Barnyardgrass plant response rating (0 to 100 scale)” value (barnyardgrass [3]; [4]) of the same molecule?
**A.** Its value is 80.

**Q.** What about the “Plant response rating, Barnyardgrass” value (barnyardgrass [3]; [5]) of the same molecule?
**A.** The value was 100.

**Q.** What about the “Barnyardgrass plant response rating” value (barnyardgrass [3]; 125 g ai/ha) of the same molecule?
**A.** Its value is 10.

**Q.** What about the “Barnyardgrass plant response rating” value (barnyardgrass [3]; 500 g ai/ha) of the same molecule?
**A.** Its value is 20.

**Q.** And the “Lambsquarters plant response rating (0 to 100 scale)” value (lambsquarters; [4])?
**A.** Its value is 90.

**Q.** And the “Plant response rating, Lambsquarters” value (lambsquarters; [5])?
**A.** The value was 100.

**Q.** What about the “Lambsquarters plant response rating” value (lambsquarters; 125 g ai/ha) of the same molecule?
**A.** The value was 60.

**Q.** What about the “Lambsquarters plant response rating” value (lambsquarters; 500 g ai/ha) of the same molecule?
**A.** The value was 70.

**Q.** And the “Foxtail, Giant plant response rating (0 to 100 scale)” value (giant foxtail; [4])?
**A.** The value was 50.

**Q.** What about the “Plant response rating, Foxtail, Giant” value (giant foxtail; [5]) of the same molecule?
**A.** Its value is 100.

**Q.** And the “Foxtail, Giant plant response rating” value (giant foxtail; 125 g ai/ha)?
**A.** The value was 10.

**Q.** What about the “Foxtail, Giant plant response rating” value (giant foxtail; 500 g ai/ha) of the same molecule?
**A.** Its value is 10.

**Q.** What about the “Morningglory plant response rating (0 to 100 scale)” value (morningglory; [4]) of the same molecule?
**A.** Its value is 10.

**Q.** What about the “Morningglory plant response rating” value (morningglory; 125 g ai/ha) of the same molecule?
**A.** Its value is 20.

**Q.** And the “Morningglory plant response rating” value (morningglory; 500 g ai/ha)?
**A.** The value was 60.

**Q.** What about the “Oat, Wild plant response rating” value (wild oat; 125 g ai/ha) of the same molecule?
**A.** The value was 20.

**Q.** And the “Oat, Wild plant response rating” value (wild oat; 500 g ai/ha)?
**A.** The value was 20.

**Q.** And the “Rice plant response rating” value (rice)?
**A.** Its value is 70.

**Q.** And the “Cocklebur plant response rating (0 to 100 scale)” value (cocklebur; [4])?
**A.** The value was 0.

**Q.** What about the “Plant response rating, Cocklebur” value (cocklebur; [5]) of the same molecule?
**A.** The value was 0.

**Q.** What about the “Cocklebur plant response rating” value (cocklebur; 125 g ai/ha) of the same molecule?
**A.** The value was 20.

**Q.** And the “Cocklebur plant response rating” value (cocklebur; 500 g ai/ha)?
**A.** The value was 90.

**Q.** And the “Pigweed plant response rating (0 to 100 scale)” value (pigweed; [4])?
**A.** Its value is 40.

**Q.** What about the “Plant response rating, Pigweed” value (pigweed; [5]) of the same molecule?
**A.** The value was 70.

**Q.** And the “Pigweed plant response rating” value (pigweed; 125 g ai/ha)?
**A.** Its value is 50.

**Q.** And the “Pigweed plant response rating” value (pigweed; 500 g ai/ha)?
**A.** The value was 70.

**Q.** And the “Ducksalad plant response rating” value (ducksalad)?
**A.** The value was 80.

**Q.** What about the “Corn plant response rating (0 to 100 scale)” value (corn; [4]) of the same molecule?
**A.** The value was 10.

**Q.** And the “Plant response rating, Corn” value (corn; [5])?
**A.** The value was 50.

**Q.** What about the “Corn plant response rating” value (corn; 125 g ai/ha) of the same molecule?
**A.** Its value is 10.

**Q.** And the “Corn plant response rating” value (corn; 500 g ai/ha)?
**A.** Its value is 20.

**Q.** And the “Crabgrass, Large plant response rating (0 to 100 scale)” value (large crabgrass; [4])?
**A.** Its value is 100.

**Q.** And the “Plant response rating, Crabgrass, Large” value (large crabgrass; [5])?
**A.** The value was 100.

**Q.** And the “Crabgrass, Large plant response rating” value (large crabgrass; 125 g ai/ha)?
**A.** Its value is 10.

**Q.** What about the “Crabgrass, Large plant response rating” value (large crabgrass; 500 g ai/ha) of the same molecule?
**A.** The value was 10.

**Q.** And the “Velvetleaf plant response rating (0 to 100 scale)” value (velvetleaf; [4])?
**A.** The value was 70.

**Q.** What about the “Plant response rating, Velvetleaf” value (velvetleaf; [5]) of the same molecule?
**A.** The value was 100.

**Q.** What about the “Velvetleaf plant response rating” value (velvetleaf; 125 g ai/ha) of the same molecule?
**A.** The value was 10.

**Q.** And the “Velvetleaf plant response rating” value (velvetleaf; 500 g ai/ha)?
**A.** The value was 20.
